Columns and labels:
[1] = target: T1, Adenosine receptor A3 (Homo sapiens) (UniProt P0DMS8); experiment: Agonist activity at Homo sapiens (human) adenosine A3 receptor expressed in CHO cells relative to NECA; assay type: cell-based
T1 sequence (whole entry): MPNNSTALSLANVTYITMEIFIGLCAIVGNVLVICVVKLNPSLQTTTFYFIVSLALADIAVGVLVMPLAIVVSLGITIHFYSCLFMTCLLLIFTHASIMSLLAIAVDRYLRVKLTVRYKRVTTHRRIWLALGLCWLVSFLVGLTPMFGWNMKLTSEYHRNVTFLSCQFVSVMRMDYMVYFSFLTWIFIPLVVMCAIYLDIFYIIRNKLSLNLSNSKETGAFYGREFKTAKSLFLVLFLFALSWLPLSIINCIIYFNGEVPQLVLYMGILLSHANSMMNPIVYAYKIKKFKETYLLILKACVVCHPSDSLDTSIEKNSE

[2] = target: T2, Adenosine receptor A1 (Homo sapiens) (UniProt P30542); experiment: Intrinsic efficacy at Homo sapiens (human) adenosine A1 receptor expressed in CHO cells assessed as increase in intracellular calcium level by FLIPR assay relative to NECA; assay type: functional, cell-based
T2 sequence (whole entry): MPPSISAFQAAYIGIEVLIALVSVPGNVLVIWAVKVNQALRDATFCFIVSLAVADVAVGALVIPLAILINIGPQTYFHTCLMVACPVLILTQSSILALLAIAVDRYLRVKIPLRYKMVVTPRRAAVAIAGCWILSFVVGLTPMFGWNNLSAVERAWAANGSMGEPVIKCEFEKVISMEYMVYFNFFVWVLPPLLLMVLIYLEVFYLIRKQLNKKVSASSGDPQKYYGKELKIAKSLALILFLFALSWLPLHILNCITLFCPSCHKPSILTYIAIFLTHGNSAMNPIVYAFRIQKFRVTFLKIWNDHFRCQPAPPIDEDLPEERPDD

Adenosine receptor A2a [3] = target: T3, Adenosine receptor A2a (Homo sapiens, UniProt P29274); experiment: Agonist activity at Homo sapiens (human) adenosine A2a receptor expressed in CHO cells relative to NECA; assay type: cell-based
T3 sequence (P29274 whole entry): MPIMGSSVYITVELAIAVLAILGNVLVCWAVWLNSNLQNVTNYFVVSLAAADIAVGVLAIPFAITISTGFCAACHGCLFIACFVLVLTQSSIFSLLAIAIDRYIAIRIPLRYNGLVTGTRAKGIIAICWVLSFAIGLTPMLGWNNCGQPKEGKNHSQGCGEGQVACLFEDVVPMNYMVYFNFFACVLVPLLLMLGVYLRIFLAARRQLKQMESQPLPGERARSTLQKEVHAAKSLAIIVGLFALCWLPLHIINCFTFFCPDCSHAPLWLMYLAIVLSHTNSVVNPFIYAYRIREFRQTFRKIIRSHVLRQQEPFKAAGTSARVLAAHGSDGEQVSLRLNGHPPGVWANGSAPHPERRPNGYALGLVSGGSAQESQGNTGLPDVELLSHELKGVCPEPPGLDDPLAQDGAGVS

[4] = target: T2, Adenosine receptor A1 (Homo sapiens); experiment: Agonist activity at Homo sapiens (human) adenosine A1 receptor expressed in CHO cells relative to NECA; assay type: cell-based
Adenosine receptor A2b = target: T4, Adenosine receptor A2b (Homo sapiens, UniProt P29275); experiment: Agonist activity at Homo sapiens (human) adenosine A2b receptor expressed in CHO cells; assay type: cell-based
T4 sequence (P29275 whole entry): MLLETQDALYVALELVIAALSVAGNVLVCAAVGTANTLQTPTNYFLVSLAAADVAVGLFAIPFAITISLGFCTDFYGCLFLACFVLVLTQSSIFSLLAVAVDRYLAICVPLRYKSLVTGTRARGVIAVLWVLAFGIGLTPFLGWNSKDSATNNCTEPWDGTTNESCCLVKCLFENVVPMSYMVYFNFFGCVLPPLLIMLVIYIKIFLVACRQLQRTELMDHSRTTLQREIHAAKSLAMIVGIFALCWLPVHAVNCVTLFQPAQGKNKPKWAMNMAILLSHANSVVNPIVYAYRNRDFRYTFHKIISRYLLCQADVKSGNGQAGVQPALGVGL

[5] = target: T5, Adenosine receptor A2b (Homo sapiens) (UniProt P29275); experiment: Agonist activity at Homo sapiens (human) adenosine A2b receptor expressed in CHO cells relative to NECA; assay type: cell-based
T5 sequence (whole entry): T4 sequence (P29275 whole entry)

Adenosine receptor A1 = target: T6, Adenosine receptor A1 (Homo sapiens, UniProt P30542); experiment: Agonist activity at Homo sapiens (human) adenosine A1 receptor expressed in CHO cells; assay type: cell-based
T6 sequence (P30542 whole entry): T2 sequence (whole entry)

Adenosine receptor A2a [6] = target: T3, Adenosine receptor A2a; experiment: Agonist activity at Homo sapiens (human) adenosine A2a receptor expressed in CHO cells; assay type: functional, cell-based
Adenosine receptor A3 = target: T7, Adenosine receptor A3 (Homo sapiens, UniProt P0DMS8); experiment: Agonist activity at Homo sapiens (human) adenosine A3 receptor expressed in CHO cells; assay type: cell-based
T7 sequence (P0DMS8 whole entry): T1 sequence (whole entry)

| Ratio [1] | Efficacy [2] | Ratio (Adenosine receptor A2a [3]) | Ratio [4] | Ki (Adenosine receptor A2b) | Ratio [5] | Ki (Adenosine receptor A1) | Ki (Adenosine receptor A2a [6]) | Ki (Adenosine receptor A3) | Compound |
| --- | --- | --- | --- | --- | --- | --- | --- | --- | --- |
| > 251 | 84% | 212 | 2.4 | > 100000 nM | > 273 | 25.1 nM | 5010 nM | 2510 nM | O[C@@H]1[C@H](O)[C@@H](CF)O[C@H]1n1cnc2c(NC3CCOCC3)ncnc21 |
| > 190 | 106% | 445 | 1.9 | 31600 nM | 195 | 15.8 nM | 25100 nM | 2510 nM | OC[C@H]1O[C@@H](n2cnc3c(N[C@H]4CCC[C@@H]4O)ncnc32)[C@H](O)[C@@H]1O [GR-79236] |
| > 364 | 12% | 725 | 12 | – | > 348 | 251 nM | > 100000 nM | 3160 nM | COC[C@H]1O[C@@H](n2cnc3c(Nc4ccc(O)c(F)c4)ncnc32)[C@H](O)[C@@H]1O [GR-190178] |

— ChEMBL document CHEMBL3045486, “Potent, Selective Adenosine A1 Agonists as Potential Analgesics” (Med Chem Res, 2004)
